Results as given in patent publication US12624350B2, “High-throughput single-nuclei and single-cell libraries and methods of making and of using” (ILLUMINA, INC., priority 2019, dated 2026).

What was measured:
Format in all cases: cell-based, human
A549 [1] = assay: sci-Plex of A549 cells treated for 72 hours with one of 48 compounds; conditions: A549, 72 hours
Procedure: Such heterogeneity could be explained by cells executing a defined transcriptional program asynchronously, with the dose of drug that the cells are exposed to modulating the rates of their progression through it. To test this hypothesis, we sequenced the transcriptomes of 64,440 A549 cells that were treated for 72 hours with one of 48 compounds, including many of the HDAC inhibitors from the large sci-Plex screen.
For 96-well experiments, adherent cells were trypsinized, washed with PBS and plated in tissue culture treated 96 well flat bottom plates (Thermo Fisher Scientific, cat no. 12-656-66) at 25,000 cells per well in 100 μL of media. Suspension cells were washed with PBS and plated in 96 well V-bottom tissue culture plates (Thermo Fisher Scientific, cat no. 549935) at 25,000 cells per well in 100 μL of media. Cells were allowed to recover for 24 hours before treatment with 1 μL of a 1:10 dilution of the appropriate compound or vehicle in PBS to maintain a vehicle concentration of 0.1% for all wells. […]
To organize cells treated with HDAC inhibitors into a trajectory cells were sampled to equalize the number of cells represented between the three cell lines or between treatments at 24 and 72 hrs. […] All other cells' pseudodoses was measured as the geodesic distance between their nearest principal graph node to an origin node.

A549 [2] = assay: large-scale sci-Plex screen (sci-RNA-seq3) of 188 compounds; conditions: A549, 24 hours; for distinct transcriptional states induced by the same drug (focal enrichments in UMAP): cells from all four doses
Procedure: We exposed three well-characterized human cancer cell lines, A549 (lung adenocarcinoma), K562 (chronic myelogenous leukemia), and MCF7 (mammary adenocarcinoma), to each of these 188 compounds at four doses (10 nM, 100 nM, 1 mM, and 10 mM) in duplicate, randomizing compounds and doses across well positions in replicate culture plates (data not shown). These conditions, together with vehicle controls, accounted for 4608 of 4992 independently treated cell populations in this experiment. After treatment, we lysed cells to expose nuclei, hashed them with a specific combination of two oligos (FIG. 10A), and performed sci-RNA-seq3 (21).
Lysis was conducted in the 96 well V-bottom plate. […] For the large compound screen, 500 femtomoles of an additional oligo was used to uniquely index each 96 well treatment plate. After lysis with 3 strokes of multichannel pipette, cells were fixed by addition of 200 μL of fixation buffer (5% Paraformaldehyde, 1.25×PBS). Nuclei were then fixed on ice for 15 minutes before pooling into a trough. Nuclei were pooled by plate into a 50 mL conical tube and pelleted by centrifugation at 500×g for 5 minutes. Subsequently, cells were resuspended in 500 μL of nuclei suspension buffer (NSB; (10 mM Tris-HCl, pH 7.4, 10 mM NaCl, 3 mM MgCl2, 1% Superase RNA Inhibitor, 1% 0.2 mg/mL Ultrapure BSA)). Finally, nuclei from all plates were pooled into a single conical tube and nuclei were pelleted by centrifugation at 500×g for 5 minutes. Nuclei were then resuspended in 1 mL of NSB and flash frozen into liquid nitrogen in 100 μL aliquots. Nuclei were then stored at −80 C until further processing with sci-RNA-seq.

[3] = system: A549, MCF7 and K562 cells; assay: flow cytometry of total cellular acetylated lysines; set-up: dose or concentration left out as unconfirmed; conditions: 24 hours
Procedure: A549 and MCF7 cells were seeded in 6 cm dishes at 1.6×10^6 cells per plate. K562 cells were seeded in T25 cm2 flasks at 1.6×10^6 cells per flask. […] After treatment cells were harvested as described above, pellets washed twice in PBS, resuspended in 500 μL of cold PBS and fixed by the addition of 5 mL of ice-cold ethanol while vortexing at low speed. Cells were stored at −20 C prior to processing for flow cytometry analysis. For flow cytometry, ethanol was removed and fixed cells washed twice with PBS containing 1% BSA (PBS-B) and blocked for 1 hour at room temperature. Then, blocking buffer was removed and cells were incubated in PBS containing 1% BSA and 0.1% tryton X-100 (PBS-BT) as well as a 1:500 dilution of mouse anti-acetyl-lysine antibody (cat no. ICP0390, ImmuneChem Pharmaceuticals Inc) for 2 hours at room temperature. After incubation, cells were washed twice with PBS-BT and incubated with goat anti-mouse Alexa-647 in PBS-BT for 1 hour at room temperature. Lastly, cells were washed twice with PBS-BT, once with PBS-B and resuspended in PBS-B containing 5 μg/ml Hoechst 33258 (Life Sciences Technologies) to stain the DNA. Then the levels of total acetylated-lysine and DNA content was analyzed by flow cytometry on an LSRII flow cytometer (BD Biosciences). Quantification and downstream analysis was performed using FlowJo10 (FlowJo.LLC).

MCF7 = assay: sci-Plex of pracinostat co-treatment with acetyl-CoA precursors or enzyme inhibitors; conditions: 24 hours
Source text: (§1) To validate this further, we sought to shift the distribution of cells along the HDAC inhibitor trajectory by modulating cellular acetyl-CoA levels. We treated A549 and MCF7 cells with pracinostat in the presence and absence of acetyl-CoA precursors (acetate, pyruvate, or citrate) or inhibitors of enzymes (ACLY, ACSS2, or PDH) involved in replenishing acetyl-CoA pools. After treatment, cells were harvested and processed using sci-Plex and trajectories constructed for each cell line (FIGS. 39 and 40).
(§2) For 96-well experiments, adherent cells were trypsinized, washed with PBS and plated in tissue culture treated 96 well flat bottom plates (Thermo Fisher Scientific, cat no. 12-656-66) at 25,000 cells per well in 100 μL of media. Suspension cells were washed with PBS and plated in 96 well V-bottom tissue culture plates (Thermo Fisher Scientific, cat no. 549935) at 25,000 cells per well in 100 μL of media. Cells were allowed to recover for 24 hours before treatment with 1 μL of a 1:10 dilution of the appropriate compound or vehicle in PBS to maintain a vehicle concentration of 0.1% for all wells. Cells were then exposed to small molecules at the specified concentration for either 24 or 72 hours. For experiments where cells were co-treated with HDAC inhibitors and either acetate, pyruvate, citrate, ACSS2 inhibitor (EMD Millipore Inc., Cat No. 533756), ACLY inhibitor (Cayman Chemicals, BMS-303141 Cat No. 943962-47-8) or PDH inhibitor (Cayman Chemicals, Cat No. 504817), cells were treated 24 hours after plating and harvested after 24 hours. In this set of experiments, all wells contained a final concentration of 0.2% DMSO to match treatment with both the HDAC inhibitor and inhibitors of metabolic processes.
(§3) Gene expression profiles were visualized with Monocle 3, which uses UMAP to project them into a two or three dimensional space. Briefly, Monocle 3 first calculates size factors for every cell. Size factors were calculated as the log UMI counts observed in a single cell divided by the geometric mean of log UMI counts from all measured cells. After scaling each nucleus' UMI counts by its library size factor, Monocle3 adds a pseudocount of 1, and log transforms the counts. Next, these log-transformed profiles are projected onto the top 25 principal components. These PCA coordinates were transformed by Monocle 3 (using an approach similar to the removeBatchEffect( ) function in the limma package (42)) according to the model ‘˜log(UMIs)+replicate’ (FIG. 9) or ‘log(UMIs)+viability+proliferation index+replicate’. Adjusted PCA coordinates for each cell are used to initialize UMAP. Unless otherwise noted, UMAP was run with the following parameters: 50 nearest neighbors, min_dist=0.1, inter-cell distance assessed by cosine similarity. UMAP projection of cells after dual HDAC inhibition and acetyl-COA precursor supplementation or acetyl-CoA generating enzyme inhibition was performed as described with the exception that PCA initialization was performed on the top 1000 most overdispersed genes. Louvain community detection was then performed on this UMAP space using the python package ‘louvain’. Trajectory reconstruction was then performed as described in (21).

A549 [4] = assay: as above; conditions: 24 hours
Source text: as §1, §2, §3

[5] = system: lung adenocarcinoma-derived (A549) cells; assay: sciPlex-ATAC-seq chemical screen (single-cell chromatin accessibility); conditions: A549, 24 hours
Procedure: Each well of a 96-well culture dish was treated for 24 hours with Nutlin-3A (p53 agonist), SAHA (broad spectrum histone deacetylase inhibitor), BMS345541 (NF-kB inhibitor), Dexamethasone (glucocorticoid receptor agonist) or a vehicle control. Moreover, we varied the dose of drug added to each well, such that the effects of each compound could be evaluated at seven different concentrations. Finally, all treatments were performed in biological triplicate (FIG. 42A). After applying unique labels to each well, cells from all conditions were pooled for parallel preparation of single cell accessible chromatin profiles.
Adherent cells grown in 96 well format were prepared by first aspirating the existing media. 50 µL of TrypLE (Termo-Fisher) was then added per well and the plate was incubated at 37 C for 15 minutes for A549. After incubation, 1504 of 1×DMEM (Gibco)+10% FBS (Gibco) was added to quench the TrypLE reaction. The 2004 volume cell suspension in each well was then transferred into a V-bottom 96 well plate, preserving the well orientations. Cells were then spun for 5 minutes at 300 g to pellet cells before aspirating media. Cell pellets were washed with 100 μL 1×DPBS and then pelleted at 300 g for 5 minutes. […]
Pooled, hash-labeled nuclei were thawed on ice, inspected for nuclei integrity, counted and further adjusted to 2.5 million nuclei/mL if necessary. […]

A549 [6] = assay: pilot sci-Plex experiment (sci-RNA-seq2), four compounds; conditions: A549, 24 hours, seven doses
Procedure: We exposed A549, a human lung adenocarcinoma cell line, to one of four compounds: dexamethasone (a corticosteroid agonist), nutlin-3a (a p53-Mdm2 antagonist), BMS-345541 (an inhibitor of nuclear factor kB-dependent transcription), or vorinostat [suberoylanilide hydroxamic acid (SAHA), an HDAC inhibitor], for 24 hours across seven doses in triplicate for a total of 84 drug-dose-replicate combinations and additional vehicle controls (FIG. 6A and FIG. 7A). We labeled nuclei from each well and subjected them to sci-RNA-seq2 (FIG. 7, B to D, and Table 1).
To quantify the “population average” transcriptional response of A549 cells to each of the four drugs, we modeled each gene's expression as a function of dose through generalized linear regression. […] Additionally, we evaluated whether the number of cells recovered at each concentration could be used to infer toxicity akin to traditional screens.

## Cc1nc(-c2cccnc2)sc1C(=O)Nc1ccccc1-c1cn2c(CN3CCOCC3)csc2n1 [SRT1024]
A549 [1]
  focal concentrations of cells in coembedded UMAP projection, 72 hours versus 24 hours: new focal concentrations of cells at 72 hours

## CC1(C)O[C@@H]2C[C@H]3[C@@H]4CCC5=CC(=O)C=C[C@]5(C)[C@@]4(F)[C@@H](O)C[C@]3(C)[C@]2(C(=O)CO)O1 [triamcinolone acetonide]
A549 [2]; cluster 18, Fisher's exact test FDR<1%
  share of the cells of one small UMAP cluster that were treated with the compound: 95%

## CN(C)Cc1c(C(=O)NCCOc2ccc(C(=O)NO)cc2)oc2ccccc12 [abexinostat]
[3]
  acetylated lysine levels: markedly increased acetylated lysine levels

## CC(=O)O [acetate]
MCF7
  shift of pracinostat treated cells along the HDAC inhibitor trajectory: capable of blocking pracinostat treated cells from reaching the end of the HDAC inhibitor trajectory
A549 [4]
  shift of pracinostat treated cells along the HDAC inhibitor trajectory: capable of blocking pracinostat treated cells from reaching the end of the HDAC inhibitor trajectory

## COc1ccc(-c2ccccc2)cc1NS(=O)(=O)c1cc(Cl)cc(Cl)c1O [ACLY inhibitor]
MCF7
  shift of pracinostat treated cells along the HDAC inhibitor trajectory: shifted cells farther along the HDAC inhibitor trajectory
A549 [4]
  shift of pracinostat treated cells along the HDAC inhibitor trajectory: no such shift was observed

## O=C(O)CC(O)(CC(=O)O)C(=O)O [citrate]
MCF7
  shift of pracinostat treated cells along the HDAC inhibitor trajectory: capable of blocking pracinostat treated cells from reaching the end of the HDAC inhibitor trajectory
A549 [4]
  shift of pracinostat treated cells along the HDAC inhibitor trajectory: capable of blocking pracinostat treated cells from reaching the end of the HDAC inhibitor trajectory

## O=C(CCCCCCC(=O)Nc1ccccc1)NO [SAHA, suberoylanilide hydroxamic acid]
[5]
  accessibility of non-coding sites upstream of the COPS7A locus: dose dependent accessibility
[5]; seven concentrations
  dosage-dependent change of the chromatin regulatory landscape: increasingly altered regulatory landscapes with higher doses

## COCCNC(=O)Nc1ccc2nc(-c3cccs3)c(-c3cccs3)nc2c1 [ACSS2 inhibitor]
MCF7
  shift of pracinostat treated cells along the HDAC inhibitor trajectory: shifted cells farther along the HDAC inhibitor trajectory
A549 [4]
  shift of pracinostat treated cells along the HDAC inhibitor trajectory: no such shift was observed

## COc1ccc(C2=N[C@@H](c3ccc(Cl)cc3)[C@@H](c3ccc(Cl)cc3)N2C(=O)N2CCNC(=O)C2)c(OC(C)C)c1 [nutlin-3a]
A549 [6]
  drug-specific pathways revealed by gene ontology analysis of differentially expressed genes: p53 signaling

## C/C(=C\c1csc(C)n1)[C@@H]1C[C@@H]2O[C@]2(C)CCC[C@H](C)[C@H](O)[C@@H](C)C(=O)C(C)(C)[C@@H](O)CC(=O)O1 [epothilone B]
A549 [2]
  distinct transcriptional states induced by the same drug (focal enrichments in UMAP): associated with three such focal enrichments

## C/C(=C\c1csc(C)n1)[C@@H]1C[C@@H]2O[C@@H]2CCC[C@H](C)[C@H](O)[C@@H](C)C(=O)C(C)(C)[C@@H](O)CC(=O)O1 [epothilone A]
A549 [2]
  distinct transcriptional states induced by the same drug (focal enrichments in UMAP): associated with three such focal enrichments

## CCCCc1nc2cc(/C=C/C(=O)NO)ccc2n1CCN(CC)CC [pracinostat]
A549 [2]
  heterogeneity of cell response along the HDAC inhibitor pseudodose trajectory at each dose: homogeneous responses
[3]
  acetylated lysine levels: markedly increased acetylated lysine levels
